This is an account of results in US20150305367A1, “FROZEN CONFECTION” (CONOPCO, INC., D/B/A UNILEVER, priority 2012, published 2015).

The target in one data set is T1, recombinant human MAO-B (Homo sapiens, UniProt P27338).
T1 construct: purchased Sigma-Aldrich; host or cells: baculovirus-infected insect cells (microsomes)
T1 sequence (P27338 1-520): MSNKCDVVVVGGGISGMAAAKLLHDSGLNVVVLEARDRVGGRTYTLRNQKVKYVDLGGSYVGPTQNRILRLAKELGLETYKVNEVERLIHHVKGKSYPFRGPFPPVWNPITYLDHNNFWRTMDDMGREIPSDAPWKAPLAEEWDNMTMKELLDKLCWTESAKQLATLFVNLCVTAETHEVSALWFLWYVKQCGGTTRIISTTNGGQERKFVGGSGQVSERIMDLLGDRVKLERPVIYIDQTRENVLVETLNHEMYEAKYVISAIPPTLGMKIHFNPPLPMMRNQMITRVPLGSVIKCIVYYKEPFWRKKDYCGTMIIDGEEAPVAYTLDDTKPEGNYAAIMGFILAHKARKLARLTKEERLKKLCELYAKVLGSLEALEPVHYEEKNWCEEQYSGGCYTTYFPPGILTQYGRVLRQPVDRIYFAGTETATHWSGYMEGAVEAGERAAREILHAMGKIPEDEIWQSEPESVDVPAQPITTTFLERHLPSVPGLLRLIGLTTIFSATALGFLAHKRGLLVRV
The experiment in a line: MAO-Glo chemiluminescent MAO-B inhibition assay.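 On all read-outs here: MAO-B from microsomes of baculovirus-infected insect cells, luciferin-based luminescence read-out, inhibition relative to enzyme activity with DMSO vehicle alone and no inhibitor.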 The data set is classed as biochemical. The settings on record: for MAO-B inhibition (Yes/No): overall verdict over 1, 10 and 100 μM; for inhibition at 1 µM: test concentration 1 μM; for inhibition at 1 µM / inhibition at 10 µM / inhibition at 100 µM: mean ± standard deviation, triplicate, 90 min incubation; for inhibition at 10 µM: test concentration 10 μM; for inhibition at 100 µM: test concentration 100 μM.

For data set [1] the following is noted: measured in vivo in rat brain; cited from earlier work.

Broadly, the inhibition is the change of the read-out against control, counted positive when it falls. Turning to `COc1ccccc1O` [2-Methoxyphenol], on recombinant human MAO-B, the “MAO-B inhibition (Yes/No)” value was “No”, the inhibition at 1 µM turned out to be 0%, the inhibition at 10 µM turned out to be 0% and the inhibition at 100 µM is 0%.

Turning to `O=Cc1ccc(O)c(O)c1` [3,4-Dihydroxybenzaldehyde], at recombinant human MAO-B, the “MAO-B inhibition (Yes/No)” value is recorded as “No”, the inhibition at 1 µM came to 0%, the inhibition at 10 µM is 4 ± 5.1% and the inhibition at 100 µM came to 9 ± 3.6%.

With `CC(=O)C(C)O` (stereo not drawn) [3-Hydroxy-2-butanone], at recombinant human MAO-B, the “MAO-B inhibition (Yes/No)” value is listed as “No”, the inhibition at 1 µM turned out to be 11 ± 4.2%, the inhibition at 10 µM is 6 ± 5.2% and the inhibition at 100 µM stood at 7 ± 3.4%.

As for `CC1=C(O)C(=O)C(C)O1` (stereo not drawn) [4-Hydroxy-2,5-dimethyl-3(2H)-furanone], at recombinant human MAO-B, the “MAO-B inhibition (Yes/No)” value is given as “No”, the inhibition at 1 µM is 0%, the inhibition at 10 µM is 9 ± 3.3% and the inhibition at 100 µM is 7 ± 11.7%.

Consider `O=Cc1ccc(O)cc1` [4-Hydroxybenzaldehyde], for which, at recombinant human MAO-B, the “MAO-B inhibition (Yes/No)” value was “Yes”, the inhibition at 1 µM amounted to 10 ± 3.2%, the inhibition at 10 µM was found to be 6 ± 4.7% and the inhibition at 100 µM turned out to be 27 ± 5.1%.

In the case of `O=C(O)c1ccc(O)cc1` [4-Hydroxybenzoic acid], on recombinant human MAO-B, the “MAO-B inhibition (Yes/No)” value is on record as “No”, the inhibition at 1 µM worked out at 13 ± 3.2%, the inhibition at 10 µM came out at 9 ± 5.2% and the inhibition at 100 µM turned out to be 11 ± 5.7%.

On to `OCc1ccc(O)cc1` [4-Hydroxybenzyl alcohol], for which, at recombinant human MAO-B, the “MAO-B inhibition (Yes/No)” value was “No”, the inhibition at 1 µM is 1 ± 7.9%, the inhibition at 10 µM worked out at 0% and the inhibition at 100 µM was 6 ± 8.1%.

As to `COc1ccc(C=O)cc1` [4-Methoxybenzaldehyde], on recombinant human MAO-B, the “MAO-B inhibition (Yes/No)” value is reported as “Yes”, the inhibition at 1 µM came to 0%, the inhibition at 10 µM was 11 ± 3.8% and the inhibition at 100 µM worked out at 75 ± 1.9%.

With `O=C(/C=C/c1ccccc1)OCc1ccccc1` [Benzyl cinnamate], on recombinant human MAO-B, the “MAO-B inhibition (Yes/No)” value is recorded as “Yes”, the inhibition at 1 µM was 10 ± 6.4%, the inhibition at 10 µM came to 63 ± 3.1% and the inhibition at 100 µM came to 100%.

Consider `O=C(O)/C=C/c1ccc(O)cc1` [Coumaric acid], for which, at recombinant human MAO-B, the inhibition at 1 µM is 11 ± 4.2%, the inhibition at 10 µM was 16 ± 2.8% and the inhibition at 100 µM was 17 ± 7.3%.

As for `CCOc1cc(C=O)ccc1O` [Ethyl vanillin], on recombinant human MAO-B, the “MAO-B inhibition (Yes/No)” value is “No”, the inhibition at 1 µM was determined as 0%, the inhibition at 10 µM is 0% and the inhibition at 100 µM was found to be 4 ± 5.3%.

As for `C=CCc1ccc(O)c(OC)c1` [Eugenol], on recombinant human MAO-B, the “MAO-B inhibition (Yes/No)” value was “No”, the inhibition at 1 µM stood at 0%, the inhibition at 10 µM is 4 ± 4.6% and the inhibition at 100 µM amounted to 0%.

Regarding `COc1cc(/C=C/C(=O)O)ccc1O` [Ferulic acid], at recombinant human MAO-B, the “MAO-B inhibition (Yes/No)” value is “No”, the inhibition at 1 µM is 4 ± 1.2%, the inhibition at 10 µM stood at 9 ± 1.7% and the inhibition at 100 µM was 4 ± 7%.

As for `O=Cc1ccc2c(c1)OCO2` [Piperonal], on recombinant human MAO-B, the “MAO-B inhibition (Yes/No)” value is “Yes”, the inhibition at 1 µM amounted to 10 ± 2.9%, the inhibition at 10 µM was determined as 53 ± 4% and the inhibition at 100 µM worked out at 100%.

Take `COc1cc(C(=O)O)ccc1O` [Vanillic acid]: at recombinant human MAO-B, the “MAO-B inhibition (Yes/No)” value was “No”, the inhibition at 1 µM came to 6 ± 4.2%, the inhibition at 10 µM is 5 ± 7.3% and the inhibition at 100 µM was 11 ± 3.3%.

Regarding `COc1cc(C=O)ccc1O` [Vanillin], the inhibition at 100 µM at recombinant human MAO-B was 19 ± 5.6%.

Turning to `COc1cc(CO)ccc1O` [Vanillyl Alcohol], at recombinant human MAO-B, the “MAO-B inhibition (Yes/No)” value is on record as “No”, the inhibition at 1 µM turned out to be 2 ± 4%, the inhibition at 10 µM is 9 ± 3% and the inhibition at 100 µM is 6 ± 5.1%.

As to `COc1ccc(C=O)cc1OC` [Veratraldehyde], on recombinant human MAO-B, the “MAO-B inhibition (Yes/No)” value is given as “No”, the inhibition at 1 µM was 1 ± 1.5%, the inhibition at 10 µM was 2 ± 6.6% and the inhibition at 100 µM worked out at 0%.

Take `NCCc1ccccc1` [phenylethylamine, Phenylethylamine]: in data set [1], the endogenous pool half-life entry is recorded as “approximately 30 s”.
